Experiments:
Experiment in all cases: radiometric filter-binding kinase assay, Kinase HotSpot
Settings in all cases: compound 0.5 µM; ATP 10 µM
[1] = molecular target: MAP3K7 TAB1 (human) (UniProt O43318+Q15750)
[2] = molecular target: DYRK1A (human) (UniProt Q13627)
[3] = molecular target: MAPK8 (human) (UniProt P45983)
[4] = molecular target: CAMK2G (human) (UniProt Q13555)
[5] = molecular target: CSNK1G2 (human) (UniProt P78368)
[6] = molecular target: MAP3K8 (human) (UniProt P41279)
[7] = molecular target: RAF1 (human) (UniProt P04049)
[8] = molecular target: STK10 (human) (UniProt O94804)
[9] = molecular target: ACVRL1 (human) (UniProt P37023)
[10] = molecular target: DYRK2 (human) (UniProt Q92630)
[11] = molecular target: MET (human) (UniProt P08581)
[12] = molecular target: WNK2 (human) (UniProt Q9Y3S1)
[13] = molecular target: EPHA8 (human) (UniProt P29322)
[14] = molecular target: ACVR1B (human) (UniProt P36896)
[15] = molecular target: ROS1 (human) (UniProt P08922)
[16] = molecular target: PNCK (human) (UniProt Q6P2M8)
[17] = molecular target: SGK2 (human) (UniProt Q9HBY8)
[18] = molecular target: CHEK2 (human) (UniProt O96017)
[19] = molecular target: BTK (human) (UniProt Q06187)
[20] = molecular target: PLK3 (human) (UniProt Q9H4B4)
[21] = molecular target: DCLK2 (human) (UniProt Q8N568)
[22] = molecular target: MAPK11 (human) (UniProt Q15759)
[23] = molecular target: SRC (human) (UniProt P12931)
[24] = molecular target: CDK1 CCNB1 (human) (UniProt P06493+P14635)
[25] = molecular target: MAP4K2 (human) (UniProt Q12851)
[26] = molecular target: EPHA4 (human) (UniProt P54764)
[27] = molecular target: PAK1 (human) (UniProt Q13153)
[28] = molecular target: IKBKE (human) (UniProt Q14164)
[29] = molecular target: SGK3 (human) (UniProt Q96BR1)
[30] = molecular target: TAOK2 (human) (UniProt Q9UL54)
[31] = molecular target: KDR (human) (UniProt P35968)
[32] = molecular target: PRKD2 (human) (UniProt Q9BZL6)
[33] = molecular target: CDC42BPA (human) (UniProt Q5VT25)
[34] = molecular target: MAPK3 (human) (UniProt P27361)
[35] = molecular target: ALK (human) (UniProt Q9UM73)
[36] = molecular target: MUSK (human) (UniProt O15146)
[37] = molecular target: PRKCZ (human) (UniProt Q05513)
[38] = molecular target: AKT1 (human) (UniProt P31749)
[39] = molecular target: PDGFRA (human) (UniProt P16234)
[40] = molecular target: ULK1 (human) (UniProt O75385)
[41] = molecular target: MAP4K4 (human) (UniProt O95819)
[42] = molecular target: FGR (human) (UniProt P09769)

EPHA4 (human), sequence (P54764 whole entry, looked up): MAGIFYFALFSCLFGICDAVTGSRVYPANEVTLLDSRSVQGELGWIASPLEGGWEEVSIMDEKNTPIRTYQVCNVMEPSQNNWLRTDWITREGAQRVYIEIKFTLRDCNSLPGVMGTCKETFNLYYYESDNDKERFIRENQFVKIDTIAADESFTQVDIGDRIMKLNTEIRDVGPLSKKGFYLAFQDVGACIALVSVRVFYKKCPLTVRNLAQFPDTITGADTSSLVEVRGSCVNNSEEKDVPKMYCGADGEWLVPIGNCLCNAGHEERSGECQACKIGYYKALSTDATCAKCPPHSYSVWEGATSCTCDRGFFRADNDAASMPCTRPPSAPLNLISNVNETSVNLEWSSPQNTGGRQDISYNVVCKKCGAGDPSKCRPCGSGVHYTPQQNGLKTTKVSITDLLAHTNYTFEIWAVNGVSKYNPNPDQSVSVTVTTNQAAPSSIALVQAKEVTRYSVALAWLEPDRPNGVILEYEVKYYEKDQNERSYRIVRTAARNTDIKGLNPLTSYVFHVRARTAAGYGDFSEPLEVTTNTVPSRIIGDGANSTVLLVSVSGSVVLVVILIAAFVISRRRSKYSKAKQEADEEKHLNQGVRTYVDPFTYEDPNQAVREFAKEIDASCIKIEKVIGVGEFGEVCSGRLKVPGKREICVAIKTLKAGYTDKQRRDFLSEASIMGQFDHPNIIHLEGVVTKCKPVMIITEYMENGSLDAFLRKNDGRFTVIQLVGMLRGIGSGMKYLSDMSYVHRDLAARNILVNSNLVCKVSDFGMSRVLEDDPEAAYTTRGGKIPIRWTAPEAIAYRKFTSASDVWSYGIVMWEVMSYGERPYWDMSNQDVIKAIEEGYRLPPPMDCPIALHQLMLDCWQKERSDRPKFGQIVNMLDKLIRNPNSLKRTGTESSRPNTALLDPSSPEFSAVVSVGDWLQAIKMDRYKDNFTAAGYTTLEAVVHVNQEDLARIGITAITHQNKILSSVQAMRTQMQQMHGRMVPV
KDR (human), sequence (P35968 whole entry, looked up): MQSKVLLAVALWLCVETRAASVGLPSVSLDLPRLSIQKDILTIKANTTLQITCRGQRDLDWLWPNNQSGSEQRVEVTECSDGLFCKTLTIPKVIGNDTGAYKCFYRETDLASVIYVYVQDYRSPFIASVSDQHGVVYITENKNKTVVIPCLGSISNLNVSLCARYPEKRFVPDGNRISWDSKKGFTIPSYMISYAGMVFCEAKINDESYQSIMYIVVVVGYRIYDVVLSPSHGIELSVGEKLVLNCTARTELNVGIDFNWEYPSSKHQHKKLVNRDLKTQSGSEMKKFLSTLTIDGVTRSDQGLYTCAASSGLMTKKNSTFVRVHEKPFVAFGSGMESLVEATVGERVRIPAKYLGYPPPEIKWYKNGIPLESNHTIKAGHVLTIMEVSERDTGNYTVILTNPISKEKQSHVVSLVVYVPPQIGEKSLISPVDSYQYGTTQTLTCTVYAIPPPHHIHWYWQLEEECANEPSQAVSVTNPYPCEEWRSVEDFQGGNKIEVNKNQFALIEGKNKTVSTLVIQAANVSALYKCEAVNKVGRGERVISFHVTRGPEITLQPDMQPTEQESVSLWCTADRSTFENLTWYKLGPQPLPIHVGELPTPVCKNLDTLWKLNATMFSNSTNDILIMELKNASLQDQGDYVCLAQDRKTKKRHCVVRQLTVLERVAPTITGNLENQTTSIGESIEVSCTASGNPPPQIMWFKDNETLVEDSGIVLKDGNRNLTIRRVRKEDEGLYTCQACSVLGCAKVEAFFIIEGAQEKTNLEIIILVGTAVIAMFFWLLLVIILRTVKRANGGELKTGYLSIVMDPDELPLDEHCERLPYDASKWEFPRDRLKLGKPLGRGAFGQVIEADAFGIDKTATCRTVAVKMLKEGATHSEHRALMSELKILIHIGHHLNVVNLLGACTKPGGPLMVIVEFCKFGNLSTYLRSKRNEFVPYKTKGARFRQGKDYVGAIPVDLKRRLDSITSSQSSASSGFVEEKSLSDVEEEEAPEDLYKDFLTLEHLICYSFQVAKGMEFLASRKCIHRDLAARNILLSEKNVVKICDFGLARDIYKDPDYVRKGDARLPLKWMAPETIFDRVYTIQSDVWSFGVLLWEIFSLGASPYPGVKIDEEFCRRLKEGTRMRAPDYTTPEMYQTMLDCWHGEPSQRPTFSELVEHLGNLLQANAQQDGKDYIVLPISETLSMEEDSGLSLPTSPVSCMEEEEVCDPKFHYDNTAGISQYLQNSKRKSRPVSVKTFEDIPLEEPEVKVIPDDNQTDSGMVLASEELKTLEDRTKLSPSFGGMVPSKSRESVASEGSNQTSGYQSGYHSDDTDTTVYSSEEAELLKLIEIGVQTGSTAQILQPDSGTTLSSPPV
PLK3 (human), sequence (Q9H4B4 whole entry, looked up): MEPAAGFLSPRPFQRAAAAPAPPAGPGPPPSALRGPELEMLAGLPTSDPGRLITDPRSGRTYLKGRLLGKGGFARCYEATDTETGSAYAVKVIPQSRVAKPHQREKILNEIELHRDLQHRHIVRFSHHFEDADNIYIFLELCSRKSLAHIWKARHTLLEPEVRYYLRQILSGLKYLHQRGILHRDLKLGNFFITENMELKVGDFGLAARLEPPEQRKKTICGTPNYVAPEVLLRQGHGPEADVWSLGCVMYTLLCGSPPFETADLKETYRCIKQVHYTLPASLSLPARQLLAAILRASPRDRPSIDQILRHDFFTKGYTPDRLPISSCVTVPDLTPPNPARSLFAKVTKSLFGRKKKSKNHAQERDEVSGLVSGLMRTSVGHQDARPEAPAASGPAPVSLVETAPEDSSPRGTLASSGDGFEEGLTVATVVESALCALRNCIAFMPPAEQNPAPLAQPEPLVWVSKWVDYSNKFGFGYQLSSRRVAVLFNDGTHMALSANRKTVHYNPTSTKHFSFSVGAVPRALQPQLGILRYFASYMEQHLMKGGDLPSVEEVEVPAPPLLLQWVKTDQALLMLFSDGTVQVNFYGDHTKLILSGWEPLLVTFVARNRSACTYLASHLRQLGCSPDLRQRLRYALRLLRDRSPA
PRKD2 (human), sequence (Q9BZL6 whole entry, looked up): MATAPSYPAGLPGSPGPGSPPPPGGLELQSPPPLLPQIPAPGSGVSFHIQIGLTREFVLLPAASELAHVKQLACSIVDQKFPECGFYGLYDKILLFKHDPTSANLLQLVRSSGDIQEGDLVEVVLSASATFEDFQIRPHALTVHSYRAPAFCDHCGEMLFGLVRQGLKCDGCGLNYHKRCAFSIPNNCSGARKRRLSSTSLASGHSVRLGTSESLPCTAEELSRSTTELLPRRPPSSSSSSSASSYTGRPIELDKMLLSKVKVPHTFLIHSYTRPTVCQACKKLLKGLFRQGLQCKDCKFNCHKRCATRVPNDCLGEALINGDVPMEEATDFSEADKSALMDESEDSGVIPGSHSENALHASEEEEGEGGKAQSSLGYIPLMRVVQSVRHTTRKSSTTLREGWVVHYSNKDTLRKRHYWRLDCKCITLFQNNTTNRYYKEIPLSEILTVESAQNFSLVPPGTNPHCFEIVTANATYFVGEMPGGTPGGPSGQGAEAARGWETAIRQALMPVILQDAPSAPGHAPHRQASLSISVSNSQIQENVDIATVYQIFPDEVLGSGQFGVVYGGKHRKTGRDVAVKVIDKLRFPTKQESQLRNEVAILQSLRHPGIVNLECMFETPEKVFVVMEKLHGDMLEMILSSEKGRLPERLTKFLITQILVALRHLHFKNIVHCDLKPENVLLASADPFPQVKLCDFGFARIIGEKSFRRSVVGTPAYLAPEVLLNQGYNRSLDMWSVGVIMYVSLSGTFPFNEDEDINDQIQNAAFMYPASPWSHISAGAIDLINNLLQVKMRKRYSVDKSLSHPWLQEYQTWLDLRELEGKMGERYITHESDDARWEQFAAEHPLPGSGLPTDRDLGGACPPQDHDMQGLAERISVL
STK10 (human), sequence (O94804 whole entry, looked up): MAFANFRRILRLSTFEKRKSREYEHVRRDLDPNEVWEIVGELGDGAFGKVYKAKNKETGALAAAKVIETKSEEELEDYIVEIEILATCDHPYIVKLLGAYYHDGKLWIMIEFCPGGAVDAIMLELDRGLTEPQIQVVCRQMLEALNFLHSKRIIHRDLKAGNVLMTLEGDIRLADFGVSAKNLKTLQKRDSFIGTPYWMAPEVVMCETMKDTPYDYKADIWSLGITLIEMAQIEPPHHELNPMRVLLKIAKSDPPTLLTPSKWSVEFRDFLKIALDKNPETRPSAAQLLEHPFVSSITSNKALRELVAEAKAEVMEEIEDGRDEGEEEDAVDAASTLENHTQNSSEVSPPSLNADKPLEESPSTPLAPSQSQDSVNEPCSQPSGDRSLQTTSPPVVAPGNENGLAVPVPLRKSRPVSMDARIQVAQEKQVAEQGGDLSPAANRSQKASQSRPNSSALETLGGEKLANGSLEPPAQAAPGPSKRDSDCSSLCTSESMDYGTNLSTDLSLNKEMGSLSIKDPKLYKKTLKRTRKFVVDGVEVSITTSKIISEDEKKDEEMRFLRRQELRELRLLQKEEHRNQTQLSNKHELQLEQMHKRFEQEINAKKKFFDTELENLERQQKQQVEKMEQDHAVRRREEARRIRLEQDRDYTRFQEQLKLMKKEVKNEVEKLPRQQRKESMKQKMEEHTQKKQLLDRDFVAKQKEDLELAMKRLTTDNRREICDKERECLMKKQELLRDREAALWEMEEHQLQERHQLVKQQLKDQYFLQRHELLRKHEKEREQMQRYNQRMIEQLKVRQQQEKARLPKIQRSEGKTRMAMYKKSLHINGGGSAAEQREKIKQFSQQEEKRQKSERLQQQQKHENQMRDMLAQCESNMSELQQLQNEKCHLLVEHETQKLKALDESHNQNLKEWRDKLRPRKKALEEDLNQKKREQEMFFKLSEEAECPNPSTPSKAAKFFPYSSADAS

## COc1cccc(-c2cc(=O)c3ccccc3o2)c1N
[1]
  residual activity: 98.7%
[2]
  residual activity: 94%
[3]
  residual activity: 95.3%
[4]
  residual activity: 96.6%
[5]
  residual activity: 98.4%
[6]
  residual activity: 85.7%
[7]
  residual activity: 91.5%
[8]
  residual activity: 90.4%
[9]
  residual activity: 93.5%
[10]
  residual activity: 92.5%
[11]
  residual activity: 112%
[12]
  residual activity: 122%
[13]
  residual activity: 96.3%
[14]
  residual activity: 92.5%
[15]
  residual activity: 97.5%
[16]
  residual activity: 96.8%
[17]
  residual activity: 95.9%
[18]
  residual activity: 98.8%
[19]
  residual activity: 83.7%
[20]
  residual activity: 98%
[21]
  residual activity: 88.3%
[22]
  residual activity: 108%
[23]
  residual activity: 92.6%
[24]
  residual activity: 99.8%
[25]
  residual activity: 81.7%
[26]
  residual activity: 98%
[27]
  residual activity: 97.5%
[28]
  residual activity: 95.1%
[29]
  residual activity: 101%
[30]
  residual activity: 96%
[31]
  residual activity: 81.3%
[32]
  residual activity: 103%
[33]
  residual activity: 98.5%
[34]
  residual activity: 102%
[35]
  residual activity: 84.1%
[36]
  residual activity: 94.2%
[37]
  residual activity: 99.1%
[38]
  residual activity: 93.8%
[39]
  residual activity: 103%
[40]
  residual activity: 104%
[41]
  residual activity: 97.2%
[42]
  residual activity: 94.8%

## O=C(c1ccccc1)c1ccc(N2CCOCC2)cc1O
[1]
  residual activity: 101%
[2]
  residual activity: 101%
[3]
  residual activity: 99.5%
[4]
  residual activity: 94%
[5]
  residual activity: 96.1%
[6]
  residual activity: 99.6%
[7]
  residual activity: 95.9%
[8]
  residual activity: 97.9%
[9]
  residual activity: 105%
[10]
  residual activity: 96.8%
[11]
  residual activity: 115%
[12]
  residual activity: 100%
[14]
  residual activity: 104%
[15]
  residual activity: 96%
[16]
  residual activity: 101%
[17]
  residual activity: 105%
[18]
  residual activity: 106%
[19]
  residual activity: 103%
[20]
  residual activity: 99.1%
[21]
  residual activity: 103%
[22]
  residual activity: 99.3%
[23]
  residual activity: 97.8%
[24]
  residual activity: 92.3%
[25]
  residual activity: 116%
[26]
  residual activity: 103%
[27]
  residual activity: 91.8%
[28]
  residual activity: 101%
[29]
  residual activity: 105%
[30]
  residual activity: 107%
[31]
  residual activity: 96.8%
[32]
  residual activity: 99.1%
[33]
  residual activity: 95.5%
[34]
  residual activity: 102%
[35]
  residual activity: 102%
[36]
  residual activity: 101%
[37]
  residual activity: 85%
[38]
  residual activity: 102%
[39]
  residual activity: 91.9%
[40]
  residual activity: 98.9%
[41]
  residual activity: 86.4%
[42]
  residual activity: 104%

## CCc1nc(-c2ccc(OC)cc2)[nH]c1-c1ccncc1
[1]
  residual activity: 96.6%
[2]
  residual activity: 97.7%
[3]
  residual activity: 98.9%
[4]
  residual activity: 106%
[5]
  residual activity: 97.7%
[6]
  residual activity: 95%
[7]
  residual activity: 93.4%
[8]
  residual activity: 96.8%
[9]
  residual activity: 101%
[10]
  residual activity: 85.8%
[11]
  residual activity: 97.7%
[12]
  residual activity: 104%
[13]
  residual activity: 93.5%
[14]
  residual activity: 86.5%
[15]
  residual activity: 91.8%
[16]
  residual activity: 102%
[17]
  residual activity: 103%
[18]
  residual activity: 102%
[19]
  residual activity: 106%
[20]
  residual activity: 96.9%
[21]
  residual activity: 103%
[22]
  residual activity: 104%
[23]
  residual activity: 95.3%
[24]
  residual activity: 102%
[25]
  residual activity: 106%
[26]
  residual activity: 105%
[27]
  residual activity: 99.3%
[28]
  residual activity: 99.8%
[29]
  residual activity: 99.3%
[30]
  residual activity: 98.2%
[31]
  residual activity: 103%
[32]
  residual activity: 102%
[33]
  residual activity: 96.3%
[34]
  residual activity: 99.9%
[35]
  residual activity: 106%
[36]
  residual activity: 85.9%
[37]
  residual activity: 107%
[39]
  residual activity: 96.3%
[40]
  residual activity: 84.5%
[41]
  residual activity: 91.9%
[42]
  residual activity: 97.2%
